Values of other authors, collected in patent publication US9700574B2, “Use of secnidazole in treatment of dental infections” (ATHENA PHARMACEUTIQUES SAS, priority 2011, dated 2017).

Tests used:
[1] = in vivo
tested microorganisms = settings: in vitro; oro-dental gel for the periodontal pocket; Drug Development and Industrial Pharmacy 34:1356-1367, 2008

Row | SMILES | half-life [1] | minimal inhibition concentration for the tested microorganisms (tested microorganisms)
1 | Cc1ncc([N+](=O)[O-])n1CC(C)O (stereo not drawn) [secnidazole, alpha-2-dimethyl-5-nitro-1H-imidazole-1-ethanol] | about 25 hours | 0.125-5 μg of secnidazole per ml of gel
2 | CC[C@H]1OC(=O)[C@H](C)[C@@H](O[C@H]2C[C@@](C)(OC)[C@@H](O)[C@H](C)O2)[C@H](C)[C@@H](O[C@@H]2O[C@H](C)C[C@H](N(C)C)[C@H]2O)[C@](C)(O)C[C@@H](C)CN(C)[C@H](C)[C@@H](O)[C@]1(C)O [azithromycine] | about 20 hours | –
